Consider 7 molecules from patent publication US6011070A, “Slow-onset, long-lasting dopamine reuptake blockers” (priority 1997, dated 2000).

Assay [1] relates to male rhesus monkeys.
Assay [2] relates to male Swiss-Webster mice. The assay can be described thus: Time course study of locomotor stimulation over 8 hours (Example 6). To be noted: for ED50: Mus musculus, ip, read-out: ED50 (dose producing one half maximal stimulant activity); for Maximum effect (horizontal activity) / Dose of maximum effect: logistic peak fit. In kind it is in vivo, Swiss-Webster mice (Hsd:ND4). As for the experimental part:
A dose response study of induced locomotor stimulation was conducted according to the following procedure. The study was conducted using 16 Digiscan locomotor activity testing chambers (40.5×40.5×30.5 cm) housed in sets of two, within sound-attenuating chambers. A panel of infrared beams (16 beams) and corresponding photodetectors were located in the horizontal direction along the sides of each activity chamber. A 7.5-W incandescent light above each chamber provided dim illumination. Fans provided an 80-dB ambient noise level within the chamber. Separate groups of 8 non-habituated male Swiss-Webster mice (Hsd:ND4, aged 2-3 months) were injected via the intraperitoneal (IP) route with either vehicle (0.9% saline) or test compound (5, 10, 20 or 40 mg/kg), immediately prior to locomotor activity testing. In all studies, horizontal activity (interruption of photocell beams) was measured for 8 hours within 10 minute periods, beginning at […]) two hours after lights on). Testing was conducted with one mouse per activity chamber.
Stimulant effects of 10, 20 and 40 mg/kg occurred within 10 minutes following injection and lasted up to 3 hours. […] Using TableCurve 2D v2.03 software (Jandel Scientific), the mean average horizontal activity counts for this 30-min period were fit to a 3-parameter logistic peak function of log10 dose (with the constant set to 3172, the mean of the saline-treated group), and the maximum was estimated from the resulting curve (maximum=6059 counts/10 min at 18.3 mg/kg).
Separate groups of eight mice were injected with either vehicle (deionized water) or Compound 2 (1, 3, 10 pr 30 mg/kg) immediately prior to locomotor activity testing.
Stimulant effects occurred within 40 to 70 minutes following injection and lasted 4 to ≥7 hours. The time period 280-310 min was selected for analysis of dose-response data because this was the time period in which maximal stimulant effects first appeared as a function of dose. Using TableCurve 2D v2.03 software (Jandel Scientific), the mean average horizontal activity counts/10 min for this period were fit to a 3-parameter logistic peak function of log10 dose (with the constant set to 399, the mean of the vehicle-treated group), and the maximum effect estimated from the resulting curve (maximum=4581 counts/10 min at 12.9 mg/kg).

In assay [3] the test system is cocaine-induced stimulation. Nature of the assay: Interaction study: block of cocaine-induced locomotor stimulation (20 mg/kg cocaine IP) (Example 3). It is filed as in vivo, Swiss-Webster mice. The settings on record: for ED50: Mus musculus, ip, read-out: AD50 (dose attenuating cocaine-induced stimulation by 50%). As for the experimental part: This interaction study was conducted using 16 Digiscan locomotor activity testing chambers as described in Example 2. […] When testing the effects of Compounds 6 and 7, mice were placed in the Digiscan apparatus twenty minutes after the injection of the test compound or vehicle.
FIGS. 9, 17 and 19 show average horizontal activity counts for the different treatment groups as a function of time. […] FIGS. 10, 18 and 20 show average horizontal activity counts/10 min for different treatment groups as a function of dose.
A one-way analysis of variance conducted on log10 horizontal activity counts for the selected time period indicated a significant overall effect for the treatment groups; F(4,35)=[…] for Compound 2; F(5,42)=[…] for Compound 6; and F((5,42)=8.96 p<0.5). […] All ps<0.05 are denoted in FIGS. 10, 18 and 20 with an asterisk.

The subject of assay [4] is male Swiss-Webster mice. The assay can be described thus: Dose response study of induced locomotor stimulation (Digiscan), 1 h session (Example 2). It is filed as in vivo, Swiss-Webster mice (Hsd:ND4). The settings on record: IP; for Maximal Effect Relative to Cocaine / ED50: locomotor activity; for ED50: Mus musculus, 30-60 min period. The protocol: A dose response study of induced locomotor stimulation was conducted according to the following procedure. The study was conducted using a 16 or 32 Digiscan locomotor activity testing chambers (40.5×40.5×30.5 cm) housed in sets of two, within sound-attenuating chambers. A panel of infrared beams (16 beams) and corresponding photodetectors were located in the horizontal direction along the sides of each activity chamber. A 15-W incandescent light above each chamber provided dim illumination. Fans provided an 80-dB ambient noise level within the chamber. Separate groups of 8 non-habituated male Swiss-Webster mice (Hsd:ND4, aged 2-3 months) were injected via the intraperitoneal (IP) route with either vehicle (deionized water for Compounds 1-4, carboxymethylcellulose for Compound 6 or methyl cellulose for Compound 7)) or test compound (1, 2.5, 5, 10, 25 or 50 mg/kg for Compound 3; 1, 3, 10 and 30 mg/kg for Compounds 1, 2 and 4; 3, 10, 30 or 100 mg/kg for Compound 6; and 1, 3, 10, 30 and 100 mg/kg for Compound 7). Compounds 1-4 were injected immediately prior to locomotor activity testing. […] In all studies, horizontal activity (interruption of photocell beams) was measured for 1 hour within 10 minute periods. Testing was conducted with one mouse per activity chamber.
FIGS. 1, 3, 5 and 7 show average horizontal activity counts/10 minutes as a function of time, immediately following injection of Compound 1, Compound 2, Compound 3 and Compound 4, respectively. FIGS. 13 and 15 show average horizontal activity counts/10 minutes as a function of time, beginning twenty minutes following injection of Compound 6 and Compound 7, respectively. The period 30-60 minutes was selected for analysis of dose-response data. Using TableCurve 2D v2.03 software (Jandel Scientific), the mean average horizontal activity counts/10 minutes for this period were fit to a 3-parameter logistic peak function of log10 dose (with the constant set to 1989, the mean of the vehicle-treated group), and the maximum effect estimated from the resulting curve. […] FIGS. 2, 4, 6, 8, 14 and 16 show average horizontal activity counts/10 minutes over 30 minutes versus the amount administered of Compound 1, Compound 2, Compound 3, Compound 4, Compound 6 and Compound 7, respectively.

In assay [5] the test system is squirrel monkeys. The assay can be described thus: Locomotor response in primates (Example 5). In kind it is in vivo.
Where [6] appears, read: read-out: ED50 (dose producing 1/2 maximal stimulant activity).

Entries after “also recorded” stand apart in the source; their conditions may differ. Read-outs that look alike come from different tables or passages of the source.

On to `COC(=O)[C@H]1[C@@H](OC(=O)c2ccccc2)C[C@@H]2CC[C@H]1N2C` [Cocaine, reference compound], for which the “Control rate of responding maintained by cocaine (drug component)” value was found to be 0.51 responses/sec in assay [1] (0.0032 mg/kg/inj cocaine, monkey 89B013); 0.79 responses/sec in assay [1] (0.0032 mg/kg/inj cocaine, monkey 89B056); 0.57 responses/sec in assay [1] (0.0032 mg/kg/inj cocaine, monkey J3A); 0.45 responses/sec in assay [1] (0.01 mg/kg/inj cocaine, monkey WH8). The “Unit dose of cocaine maintaining maximal rates of self-administration” value amounted to 0.01 mg/kg/inj in assay [1] (control conditions, monkey WH8); 0.0032 mg/kg/inj in assay [1] (control conditions, monkeys 89B056 and J3A). Moreover, the “Shape of dose-effect curve for cocaine self-administration” value in assay [1] (control conditions, no pretreatment) is on record as “inverted-U shape”. In assay [2] (0.5 h), the ED50 was determined as 8.8 mg/kg. Besides, the “Duration of stimulant effects” value in assay [2] (cocaine 10, 20 and 40 mg/kg IP) was “up to 3 hours”. Besides, in assay [2] (cocaine 10, 20 and 40 mg/kg IP), the “Onset of stimulant effects following injection” value was no more than 10 min. In assay [2] (cocaine, 0-30 min, at 18.3 mg/kg), the “Maximum effect (horizontal activity)” value stood at 6059 counts/10 min. Besides, the “Dose of maximum effect” value in assay [2] (cocaine, 0-30 min) was 18.3 mg/kg. The “Stimulation of locomotor activity” value in assay [2] (cocaine, doses from 10 to 40 mg/kg IP) is “time-dependent stimulation of locomotor activity”. The “Period of maximal stimulant effects” value in assay [2] (first minutes following 20 mg/kg cocaine) was no more than 30 min.

As to `CCCN(C)C1CC(c2ccc(Cl)c(Cl)c2)c2ccccc21` (centres unmarked) [Compound 2], the “Effect on cocaine-induced locomotor stimulation” value in assay [3] (20 mg/kg cocaine IP) is listed as “antagonized the stimulant effect of cocaine; also recorded: block cocaine induced locomotor activity”. The “Dose with significant difference against the cocaine group (planned comparisons)” value in assay [3] (20 mg/kg cocaine IP, 0-30 min, p<0.05) is recorded as 30 mg/kg. In addition, the ED50 is 13.8 mg/kg in assay [3]; 5.65 mg/kg in assay [4] (setting [6]); 3.3 mg/kg in assay [2] (310 min, Compound 2, 280-310 min, 1 to 10 mg/kg ascending portion). Also, the “Maximal Effect Relative to Cocaine” value in assay [4] was determined as 0.51. For the same molecule, in assay [2] (Compound 2), the “Period of maximal stimulant effects” value fell in the range of 280 to 310 min. The “Duration of stimulant effects” value in assay [2] (Compound 2, 3 to 30 mg/kg) is reported as “UP TO SEVEN”. Moreover, in assay [2] (Compound 2, 280-310 min), the “Maximal effect/cocaine maximal effect ratio (ME/CME)” value is reported as 1.4. Further, the “Maximum effect (horizontal activity)” value in assay [2] (Compound 2, 280-310 min, at 12.9 mg/kg) was 4581 counts/10 min. In addition, the “Dose of maximum effect” value in assay [2] (Compound 2, 280-310 min) is 12.9 mg/kg. In assay [2] (Compound 2, doses from 3 to 30 mg/kg), the “Stimulation of locomotor activity” value is given as “time-dependent stimulation of locomotor activity”.

With `CCN(C)C1CC(c2ccc(Cl)c(Cl)c2)c2ccccc21` (centres unmarked) [Compound 3], the “Maximal Effect Relative to Cocaine” value in assay [4] is reported as 0.93. Moreover, the ED50 in assay [4] (setting [6]) stood at 10.8 mg/kg.

With `CCNC1CC(c2ccc(Cl)c(Cl)c2)c2ccccc21` (centres unmarked) [Compound 4], the “Maximal Effect Relative to Cocaine” value in assay [4] is 1.07. The ED50 in assay [4] (setting [6]) worked out at 3.9 mg/kg.

As to `CNC1CC(c2ccc(Cl)c(Cl)c2)c2ccccc21` (centres unmarked) [Compound 5], the “Duration of stimulated locomotor activity / increased response rate” value in assay [5] (0.3 mg/kg Compound 5) is “two to four”. In addition, the “Number of Responses/Second” value in assay [5] (0.3 mg/kg Compound 5, Day 1, Monkey 1 (control 0.74)) is on record as 1.29 responses/second; in assay [5] (0.3 mg/kg Compound 5, Day 1, Monkey 2 (control 0.72)) it was 0.87 responses/second; in assay [5] (0.3 mg/kg Compound 5, Day 1, Monkey 3 (control 0.92)) it was 1.11 responses/second; in assay [5] (0.3 mg/kg Compound 5, Day 2, Monkey 1 (control 0.74)), 0.99 responses/second; in assay [5] (0.3 mg/kg Compound 5, Day 2, Monkey 2 (control 0.72)), 1.18 responses/second; in assay [5] (0.3 mg/kg Compound 5, Day 2, Monkey 3 (control 0.92)) it was 1.28 responses/second. Besides, the “Number of Responses/Second” value in assay [5] (0.3 mg/kg Compound 5, Day 3, Monkey 1 (control 0.74)) was 0.75 responses/second; in assay [5] (0.3 mg/kg Compound 5, Day 3, Monkey 2 (control 0.72)), 0.88 responses/second; in assay [5] (0.3 mg/kg Compound 5, Day 3, Monkey 3 (control 0.92)) it was 1.13 responses/second; in assay [5] (0.3 mg/kg Compound 5, Day 4, Monkey 1 (control 0.74)), 0.79 responses/second; in assay [5] (0.3 mg/kg Compound 5, Day 4, Monkey 2 (control 0.72)), 0.74 responses/second; in assay [5] (0.3 mg/kg Compound 5, Day 4, Monkey 3 (control 0.92)), 1.01 responses/second.

`CC(C)(C)NC1CC(c2ccc(Cl)c(Cl)c2)c2ccccc21` (centres unmarked) [Compound 6]: in assay [3] (20 mg/kg cocaine IP), the “Effect on cocaine-induced locomotor stimulation” value is given as “antagonized the stimulant effect of cocaine”. Besides, the ED50 in assay [3] turned out to be 23.6 mg/kg; in assay [4] (setting [6]), 506 mg/kg.

In the case of `CN(C1CC(c2ccc(Cl)c(Cl)c2)c2ccccc21)C(C)(C)C` (centres unmarked) [Compound 7], in assay [3] (20 mg/kg cocaine IP), the “Effect on cocaine-induced locomotor stimulation” value is recorded as “antagonized the stimulant effect of cocaine; also recorded: block cocaine induced locomotor activity”. Moreover, the ED50 in assay [3] worked out at 42.5 mg/kg; in assay [4] (read-out: ID50 (dose producing 1/2 maximal inhibitory activity)) it was 184 mg/kg. Moreover, the “Effect on locomotor activity” value in assay [4] is “inhibited locomotor activity”.
